Results reported in patent US4613602A, “Ranitidine derivative useful in the treatment of ulcer” (Magis Farmaceutici s.r.l., priority 1984, dated 1986).

Experiments:
[1] = system: gastric secretion induced by histamine; test: Anti-H2 activity, gastric secretion in rats in vivo induced by histamine; set-up: species or system rat; settings: 50 mg/kg i.p.; for pH variation from the beginning of the treatment / Area: mean ± ES; for Area: control 184.93, *p ≤ 0.01, **p ≤ 0.01
Method: Anti-H2 activity. Gastric secretion in rats in vivo induced by histamine. The anti-secretory activity has been studied by the method by Gosh, M. N., Schild, M. O. [Brit. J. Pharmacol., 13, 54 (1958)]. | Antihistaminic anti-H2 activity, gastric secretion in rats, in vivo, | induced by histamine. | Histamine perfused into vein 200 μg/kg/min at the flow rate of 0.1 | ml/min. | Perfusion of stomach with 0.00025 N NaOH at the flow rate of 1 | ml/min.

[2] = system: indomethacin-induced ulcers; test: Anti-ulcer activity, indomethacin-induced ulcers in rat; type: in vivo; settings: 25 mg/kg p.o.; for Inhibition percentage (ulcer): relative to control; for mm of ulcer: control 18.4
From the text: This activity has been evaluated by using the method of indomethacin-induced ulcers in rat [Bhargava, K. P., Gupta M. B. and Tangri, K. K.: European J. of Pharmacology, 22, 191-195 (1973)].
The product has been administered as dissolved in carboxymethylcellulose at 0.2% and Tween 80 at 1% concentration.

[3] = Acute toxicity (LD50) in rat, Lichtfield and Wilcoxon; settings: in vivo, 14 days observation, read-out: DL50
From the text: (§1) The characteristics of high activity and of practical absence of side effects have been evaluated by studying the acute toxicity, the activity on indomethacin-induced ulcers, on gastric secretion, on histamine-inducedgastric hyperacidity, and on H2 --receptors of isolated uterus of guinea pig.
(§2) The acute toxicity has been studied on male and female mice of Swiss strain, and on albino male and female rats of Wistar strain, by administering the active principle by the oral way, by intravenous way, and by intramuscular way.
(§3) For each administering way envisaged, doses in geometrical progression have been tested.
(§4) At the end of the observation time period of 14 days, the LD50 and the related fiducial limits have been computated according to the method by Licthfield and Wilcoxon [Pharmacol. Exp. Theor., 118, 96-99 (1949)].

[4] = Acute toxicity (LD50) in mouse, Lichtfield and Wilcoxon; settings: in vivo, 14 days observation
From the text: as §1, §2, §3, §4

H2-receptors = target: T1, H2-receptors (Rattus norvegicus, UniProt P25102); test: Antagonism to histamine in isolated uterus of female rat under estrus; settings: for Relaxation with histamine 10^-2 g/l, after the administration / Relaxation with histamine 10^-2 g/l, Δ: basal value 11.5
T1 construct: functional antagonism of histamine-induced relaxation
T1 sequence (P25102 whole entry): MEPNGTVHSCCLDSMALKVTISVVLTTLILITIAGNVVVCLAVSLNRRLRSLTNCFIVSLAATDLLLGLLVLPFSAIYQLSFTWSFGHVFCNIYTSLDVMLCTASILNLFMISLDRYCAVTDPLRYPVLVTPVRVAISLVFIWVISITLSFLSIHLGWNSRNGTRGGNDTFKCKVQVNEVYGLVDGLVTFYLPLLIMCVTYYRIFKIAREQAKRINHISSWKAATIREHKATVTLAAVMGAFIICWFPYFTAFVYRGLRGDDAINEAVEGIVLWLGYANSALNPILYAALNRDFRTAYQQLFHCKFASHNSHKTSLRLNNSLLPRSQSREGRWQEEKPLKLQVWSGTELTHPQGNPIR

gastric secretion = test: Therapeutical activity, overall statement; settings: in vivo
mice and rats = test: Acute toxicity, overall comparison (mouse and rat); type: in vivo; settings: whole of the data of Table 1
From the text: as §1, §2, §3, §4

[5] = im, intramuscular administering
[6] = im, intramuscular administering, read-out: DL50
[7] = intravenous administering, read-out: DL50
[8] = oral administering, read-out: DL50 (95 fiducial limits)

SMILES | pH variation from the beginning of the treatment ([1]; 0 min) [pH] | % Δ (percent increase of area relatively to the control) [1] [%] | Area [1] [mm^2] | pH variation from the beginning of the treatment ([1]; 5 min) [pH] | pH variation from the beginning of the treatment ([1]; 10 min) [pH] | pH variation from the beginning of the treatment ([1]; 15 min) [pH] | pH variation from the beginning of the treatment ([1]; 20 min) [pH] | pH variation from the beginning of the treatment ([1]; 25 min) [pH] | pH variation from the beginning of the treatment ([1]; 30 min) [pH] | pH variation from the beginning of the treatment ([1]; 35 min) [pH] | pH variation from the beginning of the treatment ([1]; 40 min) [pH] | pH variation from the beginning of the treatment ([1]; 45 min) [pH] | pH variation from the beginning of the treatment ([1]; 50 min) [pH] | pH variation from the beginning of the treatment ([1]; 55 min) [pH] | pH variation from the beginning of the treatment ([1]; 60 min) [pH] | Inhibition percentage (ulcer) [2] [percentage] | mm of ulcer [2] [mm] | LD50 at 336 h [3, 5] [mg/kg] | LD50 at 336 h ([3]; intravenous administering) [mg/kg] | LD50 at 336 h ([3]; oral administering) [mg/kg] | other results
CNC(=C[N+](=O)[O-])NCCSCc1ccc(CN(C)C)o1 [Ranitidine, ranitidine] | 8.80 | 45.47 | 269.02 | 6.12 | 4.06 | 4.06 | 4.28 | 4.48 | 4.67 | 4.89 | 5.16 | 5.33 | 5.40 | 5.57 | 5.69 | 84.2 | 2.9 | 2020 | 93 | > 5000 | LD50 at 336 h [4, 6]: 280 mg/kg; LD50 at 336 h [4, 7]: 80 mg/kg; LD50 at 336 h [4, 8]: 1700 mg/kg; Relaxation with histamine 10^-2 g/l, after the administration (H2-receptors; 5 × 10^-3 g/l, N° 5): 3; Relaxation with histamine 10^-2 g/l, Δ (H2-receptors; 5 × 10^-3 g/l, N° 5): 8.5; inhibition at 5 µg/mL (H2-receptors; rat, read-out: Inhibition percentage (relaxation with histamine 10^-2 g/l)): 73.9%
CN(C)Cc1ccc(CSCCNC(=C[N+](=O)[O-])N2CCN(C)CC2)o1 [Methylpiperazino-ranitidine, 1-N-[2-[[5-[(dimethylamino)-methyl]-furfuryl]-thio]-ethyl]-amino-1-[4-methylpiperazino]-2-nitroethene] | 8.68 | 32.84 | 245.67 | 7.21 | 5.85 | 4.62 | 4.43 | 4.39 | 4.27 | 4.06 | 4.05 | 3.97 | 3.92 | 3.99 | 3.95 | 85.9 | 2.6 | 2000 | 110 | 5500 | action prolonged in time, pH value from the 35th to the 60th minute [1]: from the 35th to the 60th minute the pH value remains nearly constant; therapeutical activity compared with ranitidine (gastric secretion): practically overlapping to that of ranitidine; anti-ulcer activity compared with ranitidine [2]: same anti-ulcer activity as ranitidine; toxicity compared with ranitidine (mice and rats): constantly results less toxic than ranitidine; LD50 at 336 h [4, 6]: 300 mg/kg; LD50 at 336 h [4, 7]: 120 mg/kg; LD50 at 336 h [4, 8]: 2610 mg/kg; Relaxation with histamine 10^-2 g/l, after the administration (H2-receptors; 6.75 × 10^-3 g/l, N° 5): 2.5; Relaxation with histamine 10^-2 g/l, Δ (H2-receptors; 6.75 × 10^-3 g/l, N° 5): 9; inhibition at 6.75 µg/mL (H2-receptors; rat, 6.75 × 10^-3 g/l, N° 5, read-out: Inhibition percentage (relaxation with histamine 10^-2 g/l)): 78.2%
